Test system: MCF7 cells
Experiment: 3' DGE RNA-seq transcriptional profiling
Type: cell-based
Parameters: log2FoldChange: concentration or dose not given beside the values
Conditions: for log2FoldChange: gene ABCA12
Experimental: The DGE RNA sequencing was performed following the published method[39],[40] with modifications as described below. MCF7 cells were seeded in a 384 well plate at 2500 cells per well, allowed to adhere for 24 hours, then treated with two doses in triplicate of XL177A, XL177B, Nutlin-3, or DMSO. After 24 hours of treatment, an EL405x plate washer (BioTek) was used to aspirate the media and wash once with PBS. Cells were lysed in the plate with 10 µl of lysis buffer (1x Qiagen TCL, 1% BME) for 5 minutes at room temperature, then stored at −80 °C. Automated liquid handling was performed with assistance from ICCB-Longwood Screening Facility. A BRAVO Automated Liquid Handling Platform (Agilent) was used for RNA extraction as follows. The lysate was mixed and 10 µl was transferred to a 384 well PCR plate. 28 µl of homemade SPRI[66] (solid-phase reversible immobilization) beads were added to the lysate and mixed. After 5 minutes, the beads were pulled down by placing the plate on a magnet, then the beads were washed twice with 80% ethanol. Beads were air dried for 1 minute, then 20 µl of nuclease free water was added, the plate was removed from the magnet, and the beads were resuspended. After 5 minutes, the plate was placed back on the magnet to pull down the beads. The supernatant was transferred to a fresh 384 well plate. RNA quantity was checked with the Qubit Fluorometer and RNA quality was assessed using the Agilent BioAnalyzer RNA 6000 Pico Kit. The BRAVO platform was again used to transfer 5 µl of supernatant was transferred to a fresh 384 well plate with RT master mix and 1 µl of barcoded E3V6NEXT adapters for reverse transcription and template switching. The plate was incubated for 90 minutes at 42 °C, then cDNA was pooled, purified with the QIAquick PCR purification kit. The full-length cDNA was treated with Exonuclease I to remove excess primers for 30 minutes at 37 °C then amplified x5 cycles with Advantage 2 PCR Enzyme System using the SINGV6 primer. The amplified full-length cDNA was purified with Agencourt AMPure XP magnetic beads and quantitated by Qubit Fluorometer. The sequencing library was prepared using the Nextera DNA kit following the manufacturer’s instructions. Briefly, 55 ng of cDNA was tagmented for 5 minutes at 55 °C then purified using Zymo DNA Clean & Concetrator-5 column, then amplified x7 cycles and purified using a 0.9x ratio of AMPure XP magnetic beads. The library size distribution was assessed by Agilent BioAnalyzer HS DNA Kit before it was quantified by qPCR and sequenced on an Illumina NextSeq at the Biopolymers Facility at Harvard Medical School.
The bcbio-nextgen single cell RNA-seq analysis pipeline (https://bcbio-nextgen.readthedocs.io/en/latest/) was used to deconvolve the well barcodes and convert reads to counts. Any detected barcode that differed by more than one base from an expected barcode was removed. Unique reads were identified using unique molecular identifiers (UMIs) in order to remove PCR duplicates. The reads remaining after these filters were aligned to the transcriptome (GRCh38) using RapMap[67]. The R package DESeq. 2 version 1.20.0 (R version 3.5.1) was used for differential expression analysis.

Compound: COc1ccc(C2=N[C@@H](c3ccc(Cl)cc3)[C@@H](c3ccc(Cl)cc3)N2C(=O)N2CCNC(=O)C2)c(OC(C)C)c1 [Nutlin-3A]
- direct p53 target genes (24 hours, low and high dose): enriched for the direct p53 target genes

Compound: CN1CCN(CCC(=O)Nc2ccc3c(=O)n(CC4(O)CCN(C(=O)[C@@H](CCCNC(=O)c5ccc6c(Cl)c7c(nc6c5)CCCC7)Cc5ccccc5)CC4)cnc3c2)CC1 [XL177A]
- DREAM complex target genes (24 hours, low and high dose): strongly downregulated the DREAM complex targets
- direct p53 target genes (24 hours, low and high dose): strongly upregulated the p53 targets
- log2FoldChange (concentration 0.1): 0.471
- log2FoldChange (concentration 1): 0.4983

Compound: CN1CCN(CCC(=O)Nc2ccc3c(=O)n(CC4(O)CCN(C(=O)[C@H](CCCNC(=O)c5ccc6c(Cl)c7c(nc6c5)CCCC7)Cc5ccccc5)CC4)cnc3c2)CC1 [XL177B]
- hierarchical clustering of transcriptional profile (24 hours, 0.1 or 1 μM): clustered with the vehicle (DMSO)-treated control cells
- log2FoldChange (concentration 0.1): 0.1473
- log2FoldChange (concentration 1): 0.2612

Source: PMC7093416, “Selective USP7 inhibition elicits cancer cell killing through a p53-dependent mechanism” (Scientific Reports, 2020)
